From patent publication US20230117034A1, “PYRAZOLOTRIAZINES” (Bayer Aktiengesellschaft, priority 2019, published 2023)

Target: CDK12/CycK (Homo sapiens, UniProt Q9NYV4)
Assay: CDK12/CycK high ATP kinase assay (TR-FRET, 2 mM ATP)
Format: biochemical
Details: 2 mM ATP (high ATP); median; read-out: CDK12/CyclinK, 2 mM ATP (high ATP), IC50-[mol/l] (median)
Outline: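 Read-out is TR-FRET (Eu-anti-rabbit IgG, anti-phospho-c-Myc Ser62 antibody, streptavidin-XL665) after EDTA stop. Reaction ran 60 min at 22 °C using 1 µM biotin-peptide and high ATP (2 mM) with roughly 0.75 nM recombinant CDK12/CycK, after 15 min compound pre-binding; normalised emission ratios yield IC50.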

Chain of CDK12/CycK (Q9NYV4 with tags, fused parts or gaps): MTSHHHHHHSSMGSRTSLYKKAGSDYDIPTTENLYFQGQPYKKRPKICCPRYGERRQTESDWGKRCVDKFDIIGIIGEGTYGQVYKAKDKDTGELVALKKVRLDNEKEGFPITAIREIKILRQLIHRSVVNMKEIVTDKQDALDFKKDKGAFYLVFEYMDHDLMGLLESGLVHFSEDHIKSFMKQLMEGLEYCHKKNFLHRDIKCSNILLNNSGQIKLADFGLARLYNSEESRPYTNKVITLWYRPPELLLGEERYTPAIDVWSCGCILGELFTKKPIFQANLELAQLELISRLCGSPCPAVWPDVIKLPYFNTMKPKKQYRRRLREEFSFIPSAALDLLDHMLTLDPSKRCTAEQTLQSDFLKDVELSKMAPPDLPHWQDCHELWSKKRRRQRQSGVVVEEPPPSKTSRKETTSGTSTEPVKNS
Chain of CDK12/CycK (O75909 1-300 partner limits assumed): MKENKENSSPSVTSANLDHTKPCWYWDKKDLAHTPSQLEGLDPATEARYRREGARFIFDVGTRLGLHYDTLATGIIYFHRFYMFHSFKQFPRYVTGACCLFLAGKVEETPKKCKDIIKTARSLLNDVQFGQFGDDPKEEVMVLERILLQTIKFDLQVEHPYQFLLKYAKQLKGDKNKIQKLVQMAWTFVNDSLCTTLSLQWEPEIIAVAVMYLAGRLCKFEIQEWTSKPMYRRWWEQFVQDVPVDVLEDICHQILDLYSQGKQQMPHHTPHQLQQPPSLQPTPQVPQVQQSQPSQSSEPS

Structure (SMILES)	IC50
Fc1ccc(-c2nnc(CNc3nc(N4CCOCC4)nc4c(Br)cnn34)[nH]2)c(F)c1 [Example 41, 8-bromo-N-{[5-(2,4-difluorophenyl)-4H-1,2,4-triazol-3-yl]methyl}-2-(morpholin-4-yl)pyrazolo[1,5-a][1,3,5]triazin-4-amine]	> 5.71 µM
N#Cc1cccc(-c2c[nH]c(CNc3nc(N4CCOCC4)nc4c(Br)cnn34)n2)c1 [Example 42, 3-[2-({[8-bromo-2-(morpholin-4-yl)pyrazolo[1,5-a][1,3,5]triazin-4-yl]amino}methyl)-1H-imidazol-4-yl]benzonitrile]	0.406 µM
Fc1cccc(-c2nnc(CNc3nc(N4CCOCC4)nc4c(Br)cnn34)[nH]2)c1 [Example 44, 8-bromo-N-{[5-(3-fluorophenyl)-4H-1,2,4-triazol-3-yl]methyl}-2-(morpholin-4-yl)pyrazolo[1,5-a][1,3,5]triazin-4-amine]	1.34 µM
Clc1ccc(-c2nnc(CNc3nc(N4CCOCC4)nc4c(Br)cnn34)[nH]2)cc1 [Example 45, 8-bromo-N-{[5-(4-chlorophenyl)-4H-1,2,4-triazol-3-yl]methyl}-2-(morpholin-4-yl)pyrazolo[1,5-a][1,3,5]triazin-4-amine]	2.2 µM
FC(F)(F)c1cccc(-c2nnc(CNc3nc(N4CCOCC4)nc4c(Br)cnn34)[nH]2)c1 [Example 52, 8-bromo-2-(morpholin-4-yl)-N-({5-[3-(trifluoromethyl)phenyl]-4H-1,2,4-triazol-3-yl}methyl)pyrazolo[1,5-a][1,3,5]triazin-4-amine]	1.64 µM
N#Cc1cccc(-c2nnc(CNc3nc(N4CCOCC4)nc4c(Br)cnn34)[nH]2)c1 [Example 55, 3-[5-({[8-bromo-2-(morpholin-4-yl)pyrazolo[1,5-a][1,3,5]triazin-4-yl]amino}methyl)-4H-1,2,4-triazol-3-yl]benzonitrile]	0.771 µM
C[C@@H]1COCCN1c1nc(NCc2nc3ccccc3[nH]2)n2ncc(Br)c2n1 [Example 56, N-[(1H-benzimidazol-2-yl)methyl]-8-bromo-2-[(3R)-3-methylmorpholin-4-yl]pyrazolo[1,5-a][1,3,5]triazin-4-amine]	5.31 µM
C[C@H]1COCCN1c1nc(NCc2nc3ccccc3[nH]2)n2ncc(Br)c2n1 [Example 57, N-[(1H-benzimidazol-2-yl)methyl]-8-bromo-2-[(3S)-3-methylmorpholin-4-yl]pyrazolo[1,5-a][1,3,5]triazin-4-amine]	1.04 µM
Cc1cnn2c(NCc3nc4c(F)c(F)ccc4[nH]3)nc(N3CCOCC3)nc12 [Example 392, N-[(4,5-difluoro-1H-benzimidazol-2-yl)methyl]-8-methyl-2-(morpholin-4-yl)pyrazolo[1,5-a][1,3,5]triazin-4-amine]	4.37 µM
Cc1cnn2c(NCc3nc4c(F)c(F)ccc4[nH]3)nc(N3CCN(C)CC3)nc12 [Example 394, N-[(4,5-difluoro-1H-benzimidazol-2-yl)methyl]-8-methyl-2-(4-methylpiperazin-1-yl)pyrazolo[1,5-a][1,3,5]triazin-4-amine]	> 18.7 µM
Cc1cnn2c(NCc3nc4c(F)c(F)ccc4[nH]3)nc(N(C)CC(C)(C)O)nc12 [Example 395, 1-[(4-{[(4,5-difluoro-1H-benzimidazol-2-yl)methyl]amino}-8-methylpyrazolo[1,5-a][1,3,5]triazin-2-yl)(methyl)amino]-2-methylpropan-2-ol]	6.4 µM
Cc1cnn2c(NCc3nc4ccccc4[nH]3)nc(N(C)CC(C)(C)O)nc12 [Example 397, 1-[(4-{[(1H-benzimidazol-2-yl)methyl]amino}-8-methylpyrazolo[1,5-a][1,3,5]triazin-2-yl)(methyl)amino]-2-methylpropan-2-ol]	> 17.5 µM
CC(C)(O)COc1nc(NCc2nc3ccccc3[nH]2)n2ncc(Br)c2n1 [Example 398, 1-[(4-{[(1H-benzimidazol-2-yl)methyl]amino}-8-bromopyrazolo[1,5-a][1,3,5]triazin-2-yl)oxy]-2-methylpropan-2-ol]	14.6 µM
CN(C)CCOc1nc(NCc2nc3ccccc3[nH]2)n2ncc(Br)c2n1 [Example 399, N-[(1H-benzimidazol-2-yl)methyl]-8-bromo-2-[2-(dimethylamino)ethoxy]pyrazolo[1,5-a][1,3,5]triazin-4-amine]	> 20 µM
Cc1cnn2c(NCc3nc4c(F)c(F)ccc4[nH]3)nc(N3CC4CCC(C3)N4)nc12 [Example 400, 2-(3,8-diazabicyclo[3.2.1]octan-3-yl)-N-[(4,5-difluoro-1H-benzimidazol-2-yl)methyl]-8-methylpyrazolo[1,5-a][1,3,5]triazin-4-amine]	> 16.7 µM

The remaining lines, values ahead:

IC50	Structure (SMILES)
5.23 µM	CC(C)c1cnn2c(NCc3nnc(-c4ccccc4)[nH]3)nc(N3CCOCC3)nc12 [Example 33, 2-(morpholin-4-yl)-N-[(5-phenyl-4H-1,2,4-triazol-3-yl)methyl]-8-(propan-2-yl)pyrazolo[1,5-a][1,3,5]triazin-4-amine]
> 5.71 µM	CCNc1nc(NCc2ncc(-c3ccccc3)[nH]2)n2ncc(C(C)C)c2n1 [Example 34, N^2-ethyl-N^4-[(5-phenyl-1H-imidazol-2-yl)methyl]-8-(propan-2-yl)pyrazolo[1,5-a][1,3,5]triazine-2,4-diamine]
2.21 µM	CC(C)c1cnn2c(NCc3ncc(-c4ccccc4)[nH]3)nc(N(C)CC(C)(C)O)nc12 [Example 35, 2-methyl-1-{methyl[4-{[(5-phenyl-1H-imidazol-2-yl)methyl]amino}-8-(propan-2-yl)pyrazolo[1,5-a][1,3,5]triazin-2-yl]amino}propan-2-ol]
> 20 µM	CC(C)c1cnn2c(NCc3ncc(-c4ccccc4)[nH]3)nc(N3CCCCC3)nc12 [Example 36, N-[(5-phenyl-1H-imidazol-2-yl)methyl]-2-(piperidin-1-yl)-8-(propan-2-yl)pyrazolo[1,5-a][1,3,5]triazin-4-amine]
> 20 µM	CC(C)c1cnn2c(NCc3nnc(-c4ccccc4)[nH]3)nc(N3CCN(C)CC3)nc12 [Example 37, 2-(4-methylpiperazin-1-yl)-N-[(5-phenyl-4H-1,2,4-triazol-3-yl)methyl]-8-(propan-2-yl)pyrazolo[1,5-a][1,3,5]triazin-4-amine]
> 5.71 µM	CCNc1nc(NCc2nnc(-c3ccccc3)[nH]2)n2ncc(C(C)C)c2n1 [Example 38, N^2-ethyl-N^4-[(5-phenyl-4H-1,2,4-triazol-3-yl)methyl]-8-(propan-2-yl)pyrazolo[1,5-a][1,3,5]triazine-2,4-diamine]
4.67 µM	CC(C)c1cnn2c(NCc3nnc(-c4ccccc4)[nH]3)nc(N(C)CC(C)(C)O)nc12 [Example 39, 2-methyl-1-{methyl[4-{[(5-phenyl-4H-1,2,4-triazol-3-yl)methyl]amino}-8-(propan-2-yl)pyrazolo[1,5-a][1,3,5]triazin-2-yl]amino}propan-2-ol]
2.44 µM	Cc1cccc(-c2nnc(CNc3nc(N4CCOCC4)nc4c(Br)cnn34)[nH]2)c1 [Example 40, 8-bromo-N-{[5-(3-methylphenyl)-4H-1,2,4-triazol-3-yl]methyl}-2-(morpholin-4-yl)pyrazolo[1,5-a][1,3,5]triazin-4-amine]
> 16.8 µM	N#Cc1cnn2c(NCc3nc4ccccc4[nH]3)nc(N3CCOCC3)nc12 [Example 43, 4-{[(1H-benzimidazol-2-yl)methyl]amino}-2-(morpholin-4-yl)pyrazolo[1,5-a][1,3,5]triazine-8-carbonitrile]
6.12 µM	Brc1cnn2c(NCc3nnc(-c4ccccc4)[nH]3)nc(N3CCCCC3)nc12 [Example 49, 8-bromo-N-[(5-phenyl-4H-1,2,4-triazol-3-yl)methyl]-2-(piperidin-1-yl)pyrazolo[1,5-a][1,3,5]triazin-4-amine]
1.73 µM	Clc1cccc(-c2nnc(CNc3nc(N4CCOCC4)nc4c(Br)cnn34)[nH]2)c1 [Example 51, 8-bromo-N-{[5-(3-chlorophenyl)-4H-1,2,4-triazol-3-yl]methyl}-2-(morpholin-4-yl)pyrazolo[1,5-a][1,3,5]triazin-4-amine]
2.03 µM	Brc1cnn2c(NCc3nnc(-c4cccnc4)[nH]3)nc(N3CCOCC3)nc12 [Example 53, 8-bromo-2-(morpholin-4-yl)-N-{[5-(pyridin-3-yl)-4H-1,2,4-triazol-3-yl]methyl}pyrazolo[1,5-a][1,3,5]triazin-4-amine]
6.44 µM	CC1(C)CN(c2nc(NCc3nc4ccccc4[nH]3)n3ncc(Br)c3n2)CCO1 [Example 58, N-[(1H-benzimidazol-2-yl)methyl]-8-bromo-2-(2,2-dimethylmorpholin-4-yl)pyrazolo[1,5-a][1,3,5]triazin-4-amine]
0.547 µM	OC[C@@H]1CCCCN1c1nc(NCc2nc3ccccc3[nH]2)n2ncc(Br)c2n1 [Example 59, [(2S)-1-(4-{[(1H-benzimidazol-2-yl)methyl]amino}-8-bromopyrazolo[1,5-a][1,3,5]triazin-2-yl)piperidin-2-yl]methanol]
1.86 µM	OC[C@H]1CCCCN1c1nc(NCc2nc3ccccc3[nH]2)n2ncc(Br)c2n1 [Example 60, [(2R)-1-(4-{[(1H-benzimidazol-2-yl)methyl]amino}-8-bromopyrazolo[1,5-a][1,3,5]triazin-2-yl)piperidin-2-yl]methanol]
> 20 µM	COc1ccccc1-c1nnc(CNc2nc(N3CCOCC3)nc3c(Br)cnn23)[nH]1 [Example 61, 8-bromo-N-{[5-(2-methoxyphenyl)-4H-1,2,4-triazol-3-yl]methyl}-2-(morpholin-4-yl)pyrazolo[1,5-a][1,3,5]triazin-4-amine]
> 20 µM	Cc1cnn2c(NCc3nc4ccccc4[nH]3)nc(N3CCOCC3)nc12 [Example 393, N-[(1H-benzimidazol-2-yl)methyl]-8-methyl-2-(morpholin-4-yl)pyrazolo[1,5-a][1,3,5]triazin-4-amine]
> 20 µM	Cc1cnn2c(NCc3nc4ccccc4[nH]3)nc(N3CCN(C)CC3)nc12 [Example 396, N-[(1H-benzimidazol-2-yl)methyl]-8-methyl-2-(4-methylpiperazin-1-yl)pyrazolo[1,5-a][1,3,5]triazin-4-amine]
